Measurements from US12583866B2, “Pyrido[2,3-b][1,4]oxazines or tetrahydropyrido[2,3-b][1,4]oxazepines as IAP antagonists” (BEIGENE, LTD., priority 2020, dated 2026).

Experiments:
[1] = target: T1, recombinant human cIAP1-BIR3 protein (Homo sapiens, UniProt Q13490); assay: Recombinant human c-IAP1-BIR3 biochemical assay (HTRF, peptide displacement); settings: 1.2 nM cIAP1-BIR3, 3 nM AbuRPF-K(5-Fam)-NH2 peptide, read-out: Protein binding IC50 (nM) c-IAP1
T1 construct: recombinant human cIAP1-BIR3 protein; purchased Reaction biology APT-11-370
T1 sequence (Q13490 253-363 limits assumed): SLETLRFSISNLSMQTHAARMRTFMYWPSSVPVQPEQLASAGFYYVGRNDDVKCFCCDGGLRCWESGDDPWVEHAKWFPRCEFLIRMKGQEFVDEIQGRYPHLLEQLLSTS
Method: I. Recombinant human c-IAP1-BIR3 biochemical assay
(§1) Compounds disclosed herein were tested for blocking of recombinant human cIAP1-BIR3 protein (Cat: APT-11-370, Reaction biology) with its peptide in an assay based on Homogeneous Time Resolved Fluorescence. 1.2 nM recombinant human cIAP1-BIR3 protein was pre-incubated with a serial dilution of compounds disclosed herein (maximum concentration is 10 uM, 4-fold serially diluted, 10 points) at room temperature for 1 hour in an assay buffer containing 20 mM HEPES, pH 7.5, 50 mM NaCl, 0.005% Tween-20, 1 mM DTT. Then 3 nM AbuRPF-K (5-Fam)-NH2 (Cat: 709702, GL Biochem) was added to plate incubated at room temperature for 1 hour. Mab Anti-6His Tb cryptate Gold (Cat: 61HI2TLB, Cisbio Bioassays) was added to plate and further incubated at room temperature for 1 hour. The HTRF signals (ex337 nm, em520 nm/490 nm) were read on BMG PHERAstar FS instrument. The inhibition percentage of cIAP1-BIR3 interaction with its peptide in presence of increasing concentrations of compounds was calculated based on the ratio of fluorescence at 520 nm to that at 490 nm. The IC50 for each compound was derived from fitting the data to the four-parameter logistic equation by Dotmatics and summarized in table 1.

[2] = target: T2, recombinant human cIAP2-BIR3 protein (Homo sapiens, UniProt Q13489); assay: Recombinant human c-IAP2-BIR3 biochemical assay (HTRF, peptide displacement); settings: 3.7 nM cIAP2-BIR3, 3.7 nM AbuRPF-K(5-Fam)-NH2 peptide, read-out: Protein binding IC50 (nM) c-IAP2
T2 construct: recombinant human cIAP2-BIR3 protein; purchased Reaction biology APT-11-372
T2 sequence (Q13489 238-349 limits assumed): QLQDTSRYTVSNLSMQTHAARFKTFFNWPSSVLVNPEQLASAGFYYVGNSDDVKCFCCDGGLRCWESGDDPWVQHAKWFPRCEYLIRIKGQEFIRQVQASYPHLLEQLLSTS
Method: II. Recombinant Human c-IAP2-BIR3 Biochemical Assay
as §1, with “human cIAP2-BIR3” for “human cIAP1-BIR3”, “(Cat: APT-11-372,” for “(Cat: APT-11-370,”, “Fluorescence. 3.7” for “Fluorescence. 1.2”, “Then 3.7” for “Then 3”, “nM AbuRPF-K(5-Fam)-NH2” for “nM AbuRPF-K (5-Fam)-NH2”, “of cIAP2-BIR3” for “of cIAP1-BIR3”

[3] = target: T3, recombinant human XIAP-BIR3 protein (Homo sapiens, UniProt P98170); assay: Recombinant human XIAP-BIR3 biochemical assay (HTRF, peptide displacement); settings: 3.7 nM XIAP-BIR3, 7.6 nM AbuRPF-K(5-Fam)-NH2 peptide, read-out: Protein binding IC50 (nM) XIAP
T3 construct: recombinant human XIAP-BIR3 protein; purchased Reaction biology APT-11-374
T3 sequence (P98170 241-356 limits assumed): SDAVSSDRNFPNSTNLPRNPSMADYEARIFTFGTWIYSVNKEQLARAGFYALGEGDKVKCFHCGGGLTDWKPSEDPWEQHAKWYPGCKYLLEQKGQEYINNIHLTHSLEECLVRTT
Method: III. Recombinant Human XIAP-BIR3 Biochemical Assay
as §1, with “human XIAP-BIR3” for “human cIAP1-BIR3”, “(Cat: APT-11-374,” for “(Cat: APT-11-370,”, “Fluorescence. 3.7” for “Fluorescence. 1.2”, “Then 7.6” for “Then 3”, “nM AbuRPF-K(5-Fam)-NH2” for “nM AbuRPF-K (5-Fam)-NH2”, “of XIAP-BIR3” for “of cIAP1-BIR3”

Structure (SMILES) | IC50 [1] [nM] | IC50 [2] [nM] | IC50 [3] [nM]
C[C@@H]1CN(CC(=O)N2c3cc(Cc4ccc(F)cc4)c(C(=O)NC[C@H]4CCOC4)nc3OC[C@@H]2C)[C@@H](CN2[C@H](C)COC[C@H]2C)CN1 [Compound 96, (S)-1-(2-((2R,5R)-2-(((3R,5R)-3,5-dimethylmorpholino)methyl)-5-methylpiperazin-1-yl)acetyl)-7-(4-fluorobenzyl)-2-methyl-N—(((R)-tetrahydrofuran-3-yl)methyl)-2,3-dihydro-1H-pyrido[2,3-b][1,4]oxazine-6-carboxamide] | 0.21 | 0.23 | 3.75
CCS(=O)(=O)Nc1nc2c(cc1Cc1ccc(F)cc1)N(C(=O)CN1C[C@@H](C)NC[C@@H]1CN1[C@H](C)COC[C@H]1C)[C@@H](C)CO2 [Compound 122] | 0.19 | 0.29 | 2.9
C[C@@H]1CN(CC(=O)N2c3cc(Cc4ccc(F)cc4)c(C(=O)N4CC[C@H](F)C4)nc3OC[C@@H]2C)[C@@H](CN2[C@H](C)COC[C@H]2C)CN1 [Compound 100, 2-((2R,5R)-2-(((3R,5R)-3,5-dimethylmorpholino)methyl)-5-methylpiperazin-1-yl)-1-((S)-7-(4-fluorobenzyl)-6-((S)-3-fluoropyrrolidine-1-carbonyl)-2-methyl-2,3-dihydro-1H-pyrido[2,3-b][1,4]oxazin-1-yl)ethan-1-one] | 0.17 | 0.44 | 4.2
CC(C)C(=O)Nc1nc2c(cc1Cc1ccc(F)cc1)N(C(=O)CN1C[C@@H](C)NC[C@@H]1CN1[C@H](C)COC[C@H]1C)[C@@H](C)CO2 [Compound 118, N—((S)-1-(2-((2R,5R)-2-(((3R,5R)-3,5-dimethylmorpholino)methyl)-5-methylpiperazin-1-yl)acetyl)-7-(4-fluorobenzyl)-2-methyl-2,3-dihydro-1H-pyrido[2,3-b][1,4]oxazin-6-yl)isobutyramide] | 0.16 | 0.19 | 4.8
CNC(=O)c1nc2c(cc1Cc1ccc(F)cc1)N(C(=O)CN1C[C@@H](C)NC[C@@H]1CN1[C@H](C)COC[C@H]1C)[C@@H](C)CO2 [Example 68, (S)-1-(2-((2R,5R)-2-(((3R,5R)-3,5-dimethylmorpholino)methyl)-5-methylpiperazin-1-yl)acetyl)-7-(4-fluorobenzyl)-N,2-dimethyl-2,3-dihydro-1H-pyrido[2,3-b][1,4]oxazine-6-carboxamide] | 0.23 | 0.41 | 5.5
C[C@@H]1CN(CC(=O)N2c3cc(Cc4ccc(F)cc4)c(CN4CC(O)C4)nc3OC[C@@H]2C)[C@@H](CN2[C@H](C)COC[C@H]2C)CN1 [Compound 114] | 0.19 | 0.36 | 7.7
CCC(=O)Nc1nc2c(cc1Cc1ccc(F)cc1)N(C(=O)CN1C[C@@H](C)NC[C@@H]1CN1[C@H](C)COC[C@H]1C)[C@@H](C)CO2 [Compound 117] | 0.15 | 0.23 | 6.5
COCCNC(=O)c1nc2c(cc1Cc1ccc(F)cc1)N(C(=O)CN1C[C@@H](C)NC[C@@H]1CN1[C@H](C)COC[C@H]1C)[C@@H](C)CO2 [Example 66, (S)-1-(2-((2R,5R)-2-(((3R,5R)-3,5-dimethylmorpholino)methyl)-5-methylpiperazin-1-yl)acetyl)-7-(4-fluorobenzyl)-N-(2-methoxyethyl)-2-methyl-2,3-dihydro-1H-pyrido[2,3-b][1,4]oxazine-6-carboxamide] | 0.25 | 0.52 | 5.9

Second part, the compound after the results:

IC50 [1] [nM] | IC50 [2] [nM] | IC50 [3] [nM] | Structure (SMILES)
0.48 | 1.13 | 16 | C[C@@H]1CN(CC(=O)N2c3cc(Cc4ccc(F)cc4)cnc3OC[C@@H]2C2CC2)[C@@H](CN2CCOC[C@H]2C)CN1 [Compound 26, 1-((S)-2-cyclopropyl-7-(4-fluorobenzyl)-2,3-dihydro-1H-pyrido[2,3-b][1,4]oxazin-1-yl)-2-((2R,5R)-5-methyl-2-(((R)-3-methylmorpholino)methyl)piperazin-1-yl)ethan-1-one]
0.15 | 0.24 | 4.49 | C[C@@H]1CN(CC(=O)N2c3cc(Cc4ccc(F)cc4)c(CO)nc3OC[C@@H]2C)[C@@H](CN2[C@H](C)COC[C@H]2C)CN1 [Compound 24]
0.78 | 1.6 | 46 | C[C@@H]1CN(CC(=O)N2c3cc(Cc4ccc(F)cc4)c(CO)nc3OC[C@@H]2C)[C@@H](CN2CCOC[C@@H]2C2CC2)CN1 [Example 84B]
0.35 | 0.72 | 7.3 | Cc1ccc([C@H]2COc3ncc(Cc4ccc(F)cc4)cc3N2C(=O)CN2C[C@@H](C)NC[C@@H]2CN2CCOC[C@H]2C)cc1 [Compound 30, 1-((S)-7-(4-fluorobenzyl)-2-(p-tolyl)-2,3-dihydro-1H-pyrido[2,3-b][1,4]oxazin-1-yl)-2-((2R,5R)-5-methyl-2-(((R)-3-methylmorpholino)methyl)piperazin-1-yl)ethan-1-one]
0.42 | 0.8 | 50 | CCOC[C@H]1COc2ncc(Cc3ccc(F)cc3)cc2N1C(=O)CN1C[C@@H](C)NC[C@@H]1CN1[C@H](C)COC[C@H]1C [Compound 36]
6.4 | 27 | 33 | C[C@@H]1CN(CC(=O)N2c3cc(Cc4ccc(F)cc4)cnc3OC[C@H]2C)[C@@H](CN2CCOC[C@H]2C)CN1 [Compound 19B, 1-((R)-7-(4-fluorobenzyl)-2-methyl-2,3-dihydro-1H-pyrido[2,3-b][1,4]oxazin-1-yl)-2-((2R,5R)-5-methyl-2-(((R)-3-methylmorpholino)methyl)piperazin-1-yl)ethan-1-one]
16 | 44 | 561 | C[C@@H]1CN(CC(=O)N2CC(C)(C)Oc3nc(Br)c(Cc4ccc(F)cc4)cc32)[C@@H](CN2CCOC[C@H]2C)CN1 [Compound 12, 1-(6-bromo-7-(4-fluorobenzyl)-3,3-dimethyl-2,3-dihydro-1H-pyrido[2,3-b][1,4]oxazin-1-yl)-2-((2R,5R)-5-methyl-2-(((R)-3-methylmorpholino)methyl)piperazin-1-yl)ethan-1-one]
0.74 | 1.8 | 47 | CC(C)C[C@H]1COc2ncc(Cc3ccc(F)cc3)cc2N1C(=O)CN1C[C@@H](C)NC[C@@H]1CN1CCOC[C@H]1C [Compound 33]
0.57 | 1.43 | 84 | CC(C)[C@H]1COc2ncc(Cc3ccc(F)cc3)cc2N1C(=O)CN1C[C@@H](C)NC[C@@H]1CN1CCOC[C@H]1C [Compound 47, 1-((S)-7-(4-fluorobenzyl)-2-isopropyl-2,3-dihydro-1H-pyrido[2,3-b][1,4]oxazin-1-yl)-2-((2R,5R)-5-methyl-2-(((R)-3-methylmorpholino)methyl)piperazin-1-yl)ethan-1-one]
